{
  "source": "ChEMBL document CHEMBL3600319",
  "about": "“Chemical constituents isolated from the Mongolian medicinal plant Sophora alopecuroides L. and their inhibitory effects on LPS-induced nitric oxide production in RAW 264.7 macrophages” (Bioorg Med Chem Lett, 2015)",
  "key": {"RAW264.7 [1]": {"tested_on": "RAW264.7", "test": "Antiinflammatory activity in mouse RAW264.7 cells assessed as inhibition of LPS-stimulated nitric oxide production after 24 hrs by Griess method", "format": "functional, cell-based", "settings": "RAW264.7, 24 h"}, "RAW264.7 [2]": {"tested_on": "RAW264.7", "test": "Potency index, ratio of aminoguanidine IC50 to compound IC50 for mouse RAW264.7 cells", "format": "functional"}, "RAW264.7 [3]": {"tested_on": "RAW264.7", "test": "Cytotoxicity against mouse RAW264.7 cells assessed as cell viability at IC50 by MTT assay", "format": "cell-based"}},
  "note": "pIC50: −log10 of the molar value.",
  "data": [
    {"smiles": "CC(C)=CCc1c2c(c(O)c3c1O[C@H](c1ccc(O)cc1)[C@H]3c1cc(O)cc(O)c1)C(=O)C[C@@H](c1ccc(O)cc1O)O2", "values": [
      {"measurement": "pIC50", "setting": "RAW264.7 [1]", "value": 5.14},
      {"measurement": "Ratio IC50", "setting": "RAW264.7 [2]", "value": 3},
      {"measurement": "Activity", "setting": "RAW264.7 [3]", "value": "Non-toxic"}
    ]},
    {"smiles": "CC(C)=CCc1c2c(c(O)c3c1O[C@H](c1ccc(O)cc1)[C@H]3c1cc(O)cc(O)c1)C(=O)C[C@@H](c1ccc(O)cc1)O2", "values": [
      {"measurement": "pIC50", "setting": "RAW264.7 [1]", "value": 4.72},
      {"measurement": "Activity", "setting": "RAW264.7 [3]", "value": "Non-toxic"}
    ]},
    {"smiles": "C=C(C)C(CCC(C)(C)O)Cc1c2c(c(O)c3c1O[C@H](c1ccc(O)cc1)[C@H]3c1cc(O)cc(O)c1)C(=O)C[C@@H](c1ccc(O)cc1O)O2", "note": "(stereo partly specified)", "values": [
      {"measurement": "pIC50", "setting": "RAW264.7 [1]", "value": 4.49},
      {"measurement": "Activity", "setting": "RAW264.7 [3]", "value": "Non-toxic"}
    ]},
    {"smiles": "Oc1ccc([C@@H]2c3c(O)cc(O)cc3[C@H]3[C@H](c4ccc(O)cc4)c4c(O)cc(O)cc4[C@@H]23)cc1", "note": "[PALLIDOL]", "values": [
      {"measurement": "pIC50", "setting": "RAW264.7 [1]", "value": "< 4.30"},
      {"measurement": "Activity", "setting": "RAW264.7 [3]", "value": "Non-toxic"}
    ]},
    {"smiles": "C=C(C)C(CC=C(C)C)Cc1c(O)cc(OC)c2c1O[C@H](c1ccc(O)cc1O)CC2=O", "note": "(stereo partly specified) [KURARINONE]", "values": [
      {"measurement": "pIC50", "setting": "RAW264.7 [1]", "value": 4.58},
      {"measurement": "Activity", "setting": "RAW264.7 [3]", "value": "Non-toxic"}
    ]},
    {"smiles": "C=CC(C)(C)c1c(OC)cc(O)c2c(=O)c3c(CC=C(C)C)c(O)c(O)cc3oc12", "note": "[CUDRAXANTHONE D]", "values": [
      {"measurement": "pIC50", "setting": "RAW264.7 [1]", "value": 4.79},
      {"measurement": "Activity", "setting": "RAW264.7 [3]", "value": "Non-toxic"}
    ]},
    {"smiles": "N=C(N)NN", "note": "[PIMAGEDINE]", "values": [
      {"measurement": "pIC50", "setting": "RAW264.7 [1]", "value": 4.69}
    ]},
    {"smiles": "OC[C@H]1O[C@@H](Oc2ccc3c(c2)OC[C@H]2c4cc5c(cc4O[C@@H]32)OCO5)[C@H](O)[C@@H](O)[C@@H]1O", "note": "[TRIFOLIRHIZIN]", "values": [
      {"measurement": "pIC50", "setting": "RAW264.7 [1]", "value": "< 4.30"},
      {"measurement": "Activity", "setting": "RAW264.7 [3]", "value": "Non-toxic"}
    ]},
    {"smiles": "C=C(C)[C@H](CC=C(C)C)Cc1c(O)cc(O)c2c1O[C@H](c1ccc(O)cc1O)CC2=O", "note": "[SOPHORAFLAVANONE G]", "values": [
      {"measurement": "pIC50", "setting": "RAW264.7 [1]", "value": 4.96},
      {"measurement": "Activity", "setting": "RAW264.7 [3]", "value": "Non-toxic"}
    ]},
    {"smiles": "CC(C)=CCc1c(O)cc(O)c2c1OC(c1ccc(O)cc1)CC2=O", "note": "(stereo unspecified) [SOPHORAFLAVANONE B]", "values": [
      {"measurement": "pIC50", "setting": "RAW264.7 [1]", "value": 4.58},
      {"measurement": "Activity", "setting": "RAW264.7 [3]", "value": "Non-toxic"}
    ]},
    {"smiles": "CC1(C)CCC(Cc2c3c(c(O)c4c2O[C@H](c2ccc(O)cc2)[C@H]4c2cc(O)cc(O)c2)C(=O)C[C@@H](c2ccc(O)cc2O)O3)C(C)(C)O1", "note": "(stereo partly specified)", "values": [
      {"measurement": "pIC50", "setting": "RAW264.7 [1]", "value": 4.56},
      {"measurement": "Activity", "setting": "RAW264.7 [3]", "value": "Non-toxic"}
    ]},
    {"smiles": "C=C(C)C(CC=C(C)C)Cc1c2c(c(O)c3c1O[C@@H](c1ccc(O)cc1)[C@H]3c1cc(O)cc(O)c1)C(=O)C[C@@H](c1ccc(O)cc1O)O2", "note": "(stereo partly specified)", "values": [
      {"measurement": "pIC50", "setting": "RAW264.7 [1]", "value": 4.80},
      {"measurement": "Activity", "setting": "RAW264.7 [3]", "value": "Non-toxic"}
    ]},
    {"smiles": "CC(C)=CCC1Cc2c(cc(O)c3c2O[C@H](c2ccc(O)cc2O)CC3=O)OC1(C)C", "note": "(stereo partly specified)", "values": [
      {"measurement": "pIC50", "setting": "RAW264.7 [1]", "value": 4.97},
      {"measurement": "Activity", "setting": "RAW264.7 [3]", "value": "Non-toxic"}
    ]}
  ]
}
